Experimental data reported in patent US7968097B2, “Identification of Hla-A2-presented T-cell epitopes derived from the oncofoetal antigen-immature laminin receptor protein and uses thereof” (Immatics Biotechnologies GmbH, priority 2005, dated 2011).

Assays:
peptide-pulsed T2 cells = experiment: Lysis of peptide-pulsed T2 target cells by peptide-specific CTL (peptide titration); type: cell-based, human
[1] = test system: peptide-pulsed 51Cr-labelled T2 cells; experiment: Cold target inhibition assay; type: cell-based, human
Source text: CTL derived from healthy HLA-A*0201^+ individuals were generated using a protocol described elsewhere (Zeis M, Siegel S, Schmitz M et al. Induction of cytotoxic T lymphocytes against hematologic neoplasms by survivin RNA-transfected dendritic cells. J Immunol. 2003; 170, 5391-5397.). For the induction of autologous OFA/ILR, peptide-specific CTL obtained from patients with AML and CLL, CD8^+ T cells were separated from PBMC using immunomagnetic beads (MACS®, Miltenyi, Bergisch-Gladbach, Germany), cultured with autologous OFA/iLR peptide-pulsed fully matured DC and restimulated with autologous peptide-pulsed PBMC in the presence of IL-2 (1 ng/ml, CellConcepts, Weisskirch, Germany). After at least four weekly restimulations, CTL reactivity was determined in a conventional 4 h ^51Chromium release assay. Cold target inhibition assays and antibody blocking experiments were performed as previously described (Zeis M, Siegel S, Schmitz M et al. Induction of cytotoxic T lymphocytes against hematologic neoplasms by survivin RNA-transfected dendritic cells. J Immunol. 2003; 170, 5391-5397.).
A cold target inhibition assay was performed. To examine whether ILR1-specific T cells lyse ILR1 peptide-pulsed T2 cells specifically and in the context of HLA-A*02, cold target inhibition assays were performed as follows: ^51Cr-labelled T2 cells were loaded with peptide in a concentration of 10 microgram peptide/10^6 T2 cells/ml. A total of 2×10^5 unlabelled, T2 cells, which had equally been loaded with the same or a control peptide, were then added in a volume of 50 microliter AIMV to 10^4 peptide-pulsed, ^51Cr-labelled T2 cells. Effector T cells specific for ILR1 were added and a ^51Cr-release assay was performed as described above.
A cold target inhibition assay was performed as described under “T2+ILR1” above.

| Sequence | recognition/lysis of T2 cells pulsed with the peptide (peptide-pulsed T2 cells) | competition of cold targets loaded with the peptide for lysis ([1]; hot target ILR1-peptide-pulsed T2, effectors ILR1-specific CTL, 10 microgram peptide/10^6 T2 cells/ml) | competition of cold targets loaded with the peptide for lysis ([1]; hot target ILR2-peptide-pulsed T2, effectors ILR2-specific CTL) |
| --- | --- | --- | --- |
| ILKEPVHGV [HIV peptide, reference compound] | not recognized | – | – |
| LYLKNYRIA (listed as Homo sapiens) [Survivin, reference compound] | – | neither peptides irrelevant for ILR1-specific CTL (Survivin and ILR2), nor unloaded T2 cells, which display empty HLA-A*02 molecules on their cell surfaces, compete for lysis | neither peptides irrelevant for ILR2-specific CTL (Survivin and ILR1), nor unloaded T2 cells, which display empty HLA-A*02 molecules on their cell surfaces, compete for lysis |
